# Source: ChEMBL document CHEMBL2203270, “POMA analyses as new efficient bioinformatics' platform to predict and optimise bioactivity of synthesized 3a,4-dihydro-3H-indeno[1,2-c]pyrazole-2-carboxamide/carbothioamide analogues” (Bioorg Med Chem Lett, 2012)
# Tests used:
# [1] = tested on: Human immunodeficiency virus 2; assay: Antiviral activity against HIV-2 ROD infected in MT4 cells assessed as protection against virus-induced cytopathicity relative to control; assay type: functional; settings: Human immunodeficiency virus 2, ISOLATE ROD
# [2] = tested on: Human immunodeficiency virus 1; assay: Antiviral activity against HIV-1 3B infected in MT4 cells assessed as protection against virus-induced cytopathicity relative to control; assay type: functional; settings: Human immunodeficiency virus 1, 3B
# [3] = tested on: Human immunodeficiency virus 2; assay: Antiviral activity against HIV-2 ROD infected in MT4 cells assessed as inhibition of virus-induced cytopathicity; assay type: functional, organism-based; settings: Human immunodeficiency virus 2, ISOLATE ROD
# [4] = Cytotoxicity against mock-infected human MT4 cells assessed as decrease in cell viability by MTT assay; assay type: cell-based
# [5] = tested on: Human immunodeficiency virus 1; assay: Antiviral activity against HIV-1 3B infected in MT4 cells assessed as inhibition of virus-induced cytopathicity; assay type: functional, organism-based; settings: Human immunodeficiency virus 1, 3B
# Candida albicans = assay: Antimicrobial activity against Candida albicans NCIM 3471 by broth dilution technique; assay type: functional
# Bacillus subtilis = assay: Antimicrobial activity against Bacillus subtilis NCIM 2439 by broth dilution technique; assay type: functional
# Aspergillus niger = assay: Antimicrobial activity against Aspergillus niger NCIM 1196 by broth dilution technique; assay type: functional
# Pseudomonas aeruginosa = assay: Antimicrobial activity against Pseudomonas aeruginosa ATCC 10145 by broth dilution technique; assay type: functional
# Escherichia coli = assay: Antimicrobial activity against Escherichia coli NCIM 5051 by broth dilution technique; assay type: functional
# Staphylococcus aureus = assay: Antimicrobial activity against Staphylococcus aureus NCIM 2079 by broth dilution technique; assay type: functional
IC50 [3] [µM],IC50 [5] [µM],MIC (Candida albicans) [µg/mL],MIC (Bacillus subtilis) [µg/mL],MIC (Aspergillus niger) [µg/mL],MIC (Pseudomonas aeruginosa) [µg/mL],MIC (Escherichia coli) [µg/mL],MIC (Staphylococcus aureus) [µg/mL],SMILES,Emax [1] [%],Emax [2] [%],CC50 [4] [µM],MFC (Candida albicans) [µg/mL],MBC (Bacillus subtilis) [µg/mL],MFC (Aspergillus niger) [µg/mL],MBC (Pseudomonas aeruginosa) [µg/mL],MBC (Escherichia coli) [µg/mL],MBC (Staphylococcus aureus) [µg/mL]
> 182,> 182,–,–,–,–,–,–,COc1ccc(C2C3Cc4cc(OC)c(OC)cc4C3=NN2C(=O)Nc2c(C)cccc2C)cc1OC (stereo not drawn),37,11,182,–,–,–,–,–,–
> 6.87,> 6.87,64,16,128,16,8,16,COc1cc2c(cc1OC)C1=NN(C(N)=S)C(c3ccccc3Cl)C1C2 (stereo not drawn),1,0,6.87,> 512,128,> 512,256,128,128
> 158,> 158,16,128,16,128,64,128,COc1ccc(C2C3Cc4cc(OC)c(OC)cc4C3=NN2C(N)=S)cc1OC (stereo not drawn),11,4,158,512,> 512,512,> 512,> 512,> 512
> 26.5,> 26.5,–,–,–,–,–,–,COc1cc2c(cc1OC)C1=NN(C(=O)Nc3ccc(Br)cc3)C(c3ccncc3)C1C2 (stereo not drawn),1,1,26.5,–,–,–,–,–,–
> 198,> 198,–,–,–,–,–,–,COc1cc2c(cc1OC)C1=NN(C(=O)Nc3ccc(C)cc3C)C(c3ccc(F)cc3)C1C2 (stereo not drawn),12,4,198,–,–,–,–,–,–
> 136,> 136,–,–,–,–,–,–,COc1ccc(C2C3Cc4cc(OC)c(OC)cc4C3=NN2C(=O)Nc2ccc(Br)cc2)cc1 (stereo not drawn),5,3,136,–,–,–,–,–,–
> 4.83,> 4.83,–,–,–,–,–,–,COc1cc2c(cc1OC)C1=NN(C(=O)Nc3ccc(Cl)cc3)C(c3ccncc3)C1C2 (stereo not drawn),5,4,4.83,–,–,–,–,–,–
> 119,> 119,–,–,–,–,–,–,COc1cc2c(cc1OC)C1=NN(C(=O)Nc3ccc(F)cc3)C(c3ccc(F)cc3)C1C2 (stereo not drawn),14,4,119,–,–,–,–,–,–
> 25.2,> 25.2,–,–,–,–,–,–,COc1cc2c(cc1OC)C1=NN(C(=O)Nc3ccc(C)cc3C)C(c3ccncc3)C1C2 (stereo not drawn),4,1,25.2,–,–,–,–,–,–
> 9.36,> 9.36,–,–,–,–,–,–,COc1cc2c(cc1OC)C1=NN(C(=O)Nc3c(C)cccc3C)C(c3ccc(F)cc3)C1C2 (stereo not drawn),4,3,9.36,–,–,–,–,–,–
> 39.9,> 39.9,32,4,64,4,4,4,COc1cc2c(cc1OC)C1=NN(C(N)=S)C(c3ccc(F)cc3)C1C2 (stereo not drawn),9,5,39.9,> 512,8,> 512,8,8,8
> 151,> 151,128,8,128,8,8,8,COc1cc2c(cc1OC)C1=NN(C(N)=O)C(c3ccc(F)cc3)C1C2 (stereo not drawn),9,3,151,> 512,16,> 512,16,16,16
> 106,> 106,–,–,–,–,–,–,COc1ccc(C2C3Cc4cc(OC)c(OC)cc4C3=NN2C(=O)Nc2ccc(Cl)cc2)cc1OC (stereo not drawn),9,4,106,–,–,–,–,–,–
> 159,> 159,–,–,–,–,–,–,COc1cc2c(cc1OC)C1=NN(C(=O)Nc3c(C)cccc3C)C(c3ccccc3Cl)C1C2 (stereo not drawn),9,4,159,–,–,–,–,–,–
> 11.5,> 11.5,–,–,–,–,–,–,COc1cc2c(cc1OC)C1=NN(C(=O)Nc3ccc(Br)cc3)C(c3ccccc3Cl)C1C2 (stereo not drawn),2,2,11.5,–,–,–,–,–,–
> 11,> 11,–,–,–,–,–,–,COc1cc2c(cc1OC)C1=NN(C(=O)Nc3ccc(C)cc3C)C(c3ccccc3Cl)C1C2 (stereo not drawn),5,1,11,–,–,–,–,–,–
> 132,> 132,–,–,–,–,–,–,COc1ccc(C2C3Cc4cc(OC)c(OC)cc4C3=NN2C(=O)Nc2ccc(F)cc2)cc1 (stereo not drawn),9,7,132,–,–,–,–,–,–
> 86,> 86,–,–,–,–,–,–,COc1cc2c(cc1OC)C1=NN(C(=O)Nc3ccc(Br)cc3)C(c3ccccc3)C1C2 (stereo not drawn),10,3,86,–,–,–,–,–,–
